Assay type in all cases: cell-based, human
Assay [1] deals with IL-17A. Nature of the assay: IL-17A secretion by the InflammaSkin ex vivo model of inflamed skin, ELISA of culture media. On the procedure: (§1) Using a clamp, the skin biopsy is held flat, with the dermis on top. A needle with no dead volume is inserted into the biopsy from the side of the dermis using a 701N or 705N Hamilton syringe (for 8 mm or 15 mm diameter biopsies, respectively). 10 μL or 35 μL of the activation solution (50 ng/μL anti-CD3 antibody, 50 ng/μL anti-CD28 antibody, and 10 ng/mL IL-2) for biopsies of 8 or 15 mm diameter, respectively, are injected from the side of the biopsy to avoid damage to the epidermis.
(§2) In WILLIAM'S E synthetic culture medium, the following supplements are added: 10 ng/mL IL-1β, 50 ng/mL IL-23, and 10 ng/mL TGFbeta. The culture is carried out for 7 days in a CO2 incubator at 37° C. The culture medium containing the supplements is changed daily.
(§3) The cytokines IL-17A, IL-22, and IFNγ produced by the model were analyzed in the culture media by an ELISA assay using a specific detection kit from Meso Scale Discovery (U-PLEX TH17 Combo 2 Human Reference K15076K) and using a multiplex assay platform (MESO QuickPlex SQ 120).
(§4) In order to test the relevance of the model of inflamed skin obtained by the method of the invention, compounds known for their anti-inflammatory effect were tested. These are betamethasone di-propionate and the PDE4 inhibitor. […]
In general terms: An ELISA detects its analyte on a solid surface through an enzyme-linked reagent.

Assay [2] has as its system ex vivo model of inflamed skin (InflammaSkin). Nature of the assay: Histological analysis of the InflammaSkin model after topical treatment. On the procedure: as §1, §2
The skin biopsy treated according to steps a) and b) of the method of the invention is dehydrated by an alcohol bath, and then passed through a xylene bath. A first bath in paraffin allows to replace the water previously contained in the skin explant by paraffin.
Serial sections of a thickness varying from 4 to 5 μm are then made along the entire length of the paraffin block containing the sample.
as §4

The subject of assay [3] is TNFα. Nature of the assay: TNFα secretion by the InflammaSkin ex vivo model of inflamed skin.
Assay [4] relates to IFNγ. Briefly: IFNγ secretion by the InflammaSkin ex vivo model of inflamed skin, ELISA of culture media. The protocol: as §1, §2, §3, §4
Assay [5] deals with IL-22. Briefly: IL-22 secretion by the InflammaSkin ex vivo model of inflamed skin, ELISA of culture media. The protocol: as §1, §2, §3, §4
Assay [6] deals with ex vivo model of inflamed skin (Hypo-InflammaSkin). Briefly: Histology analysis (hematoxylin and eosin) of the Hypo-InflammaSkin model after subcutaneous injection. On the procedure:
In a second embodiment, the hypodermis is preserved. The biopsies (epidermis, dermis, and hypodermis), the thickness of which is about 1 cm, are then cut out using a metal punch. This second embodiment is for testing anti-inflammatory compounds by subcutaneous injection.
(§5) In order to test the relevance of the model of inflamed skin obtained by the method of the invention (Hypo-InflammaSkin®), an antibody known for its anti-inflammatory effect was tested. This is the adalimumab anti-TNFα antibody. Biopsies of inflamed skin (Hypo-InflammaSkin®−I) with a thickness of 1 cm were obtained by the method of the invention. A subcutaneous injection (namely into the […]) of 50 nM adalimumab was performed at TO (prophylactic treatment, Hypo-InflammaSkin®−I+anti-TNFα−P) or after 3 days of ex vivo culture of the inflamed biopsy (therapeutic treatment, Hypo-InflammaSkin®−I+anti-TNFα−T). After 7 days of ex vivo culture, the culture media are taken, and skin biopsies are fixed in a 10% formalin solution and then embedded in paraffin blocks. Serial sections of a constant thickness of 5 μm of the biopsies are made. The morphological appearance of the skin biopsies is studied under optical microscopy using hematoxylin and eosin staining. The presence of psoriasin (S110A7) is identified by fluorescence microscopy (Leica DM 5000 microscope) using an anti-S100A7 antibody coupled to a fluorochrome. […]

The test system of assay [7] is IL-22. Nature of the assay: IL-22 secretion by the Hypo-InflammaSkin model. On the procedure:
as §3, §5

In assay [8] the test system is psoriasin (S100A7). Nature of the assay: Psoriasin detection by fluorescence microscopy in the Hypo-InflammaSkin model. Particulars: inflamed biopsy treated by subcutaneous injection of 50 nM, 7 days of ex vivo culture. On the procedure: In order to test the relevance of the model of inflamed skin obtained by the method of the invention (Hypo-InflammaSkin®), an antibody known for its anti-inflammatory effect was tested. This is the adalimumab anti-TNFα antibody. Biopsies of inflamed skin (Hypo-InflammaSkin®−I) with a thickness of 1 cm were obtained by the method of the invention. A subcutaneous injection (namely into the […]) of 50 nM adalimumab was performed at TO (prophylactic treatment, Hypo-InflammaSkin®−I+anti-TNFα−P) or after 3 days of ex vivo culture of the inflamed biopsy (therapeutic treatment, Hypo-InflammaSkin®−I+anti-TNFα−T). After 7 days of ex vivo culture, the culture media are taken, and skin biopsies are fixed in a 10% formalin solution and then embedded in paraffin blocks. Serial sections of a constant thickness of 5 μm of the biopsies are made. The morphological appearance of the skin biopsies is studied under optical microscopy using hematoxylin and eosin staining. The presence of psoriasin (S110A7) is identified by fluorescence microscopy (Leica DM 5000 microscope) using an anti-S100A7 antibody coupled to a fluorochrome. The cell nuclei are marked with DAPI. Biopsies of non-inflamed skin (HypoSkin®−biopsies including the epidermis, dermis, and hypodermis) are used for control.

As to `CCC(=O)OCC(=O)[C@@]1(OC(=O)CC)[C@@H](C)C[C@H]2[C@@H]3CCC4=CC(=O)C=C[C@]4(C)[C@@]3(F)[C@@H](O)C[C@@]21C` [betamethasone di-propionate], the IL-17A secretion result in assay [1] (prophylactic treatment, topical 10 μL daily until 7th day of culture, compared to placebo control (FIG. 6A)) is “strongly inhibited”; in assay [1] (therapeutic treatment, topical from 3 days of culture, daily until 7th day (FIG. 6B)), “inhibits IL-17A secretion”. Besides, the “histological abnormalities in the epidermis” value in assay [2] (after 7 days of culture (FIG. 5 legend)) is listed as “total absence of histological abnormalities in the epidermis”. Moreover, the “integrity and structure of the skin, particularly the epidermis, and viability of epidermal cells” value in assay [2] (prophylactic treatment, compared to placebo controls (FIG. 5)) is “preserved”. Further, the TNFα secretion entry in assay [3] (prophylactic treatment, topical 10 μL daily until 7th day of culture, compared to placebo control (FIG. 9A)) is given as “strongly inhibited”; in assay [3] (therapeutic treatment, topical from 3 days of culture, daily until 7th day (FIG. 9B)) it was “strongly inhibited”. The IFNγ secretion result in assay [4] (prophylactic treatment, topical 10 μL daily until 7th day of culture, compared to placebo control (FIG. 8A)) is “strongly inhibited”; in assay [4] (therapeutic treatment, topical from 3 days of culture, daily until 7th day (FIG. 8B)) it was “inhibits IFNγ secretion”. Besides, the IL-22 secretion result in assay [5] (prophylactic treatment, topical 10 μL daily until 7th day of culture, compared to placebo control (FIG. 7A)) was “strongly inhibited”; in assay [5] (therapeutic treatment, topical from 3 days of culture, daily until 7th day (FIG. 7B)) it was “inhibits IL-22 secretion”.
As to adalimumab, the “integrity and structure of the skin, more particularly the epidermis, and epidermal cell viability” value is “preserved” in assay [6] (prophylactic treatment, subcutaneous injection of 50 nM at T0, 7 days of ex vivo culture (FIG. 13)) and “preserved” in assay [6] (therapeutic treatment, subcutaneous injection of 50 nM after 3 days of culture, 7 days of ex vivo culture (FIG. 13)). The IL-22 secretion entry is listed as “strongly inhibited” in assay [7] (prophylactic treatment, subcutaneous injection of 50 nM at T0, compared to untreated inflamed biopsy (FIG. 14)) and “strongly inhibited” in assay [7] (therapeutic treatment, subcutaneous injection of 50 nM after 3 days of culture, compared to untreated inflamed biopsy (FIG. 14)). Also, the presence of psoriasin entry in assay [8] is “almost undetectable”.

(Values after patent US12071648B2, “Ex vivo model of inflamed human skin and uses thereof for screening anti-inflammatory compounds” (GENOSKIN, priority 2017, dated 2024).)
